Results as given in US12599672B2, “KRAS proteolysis targeting chimeras” (PAQ Therapeutics Inc., priority 2023, dated 2026).

Key:
Assay type in all cases: cell-based
KRAS G12D = target: T1, KRAS G12D (Homo sapiens, UniProt P01116, G12D); test: KRAS G12D HiBit assay; settings: AsPc-1-KRAS (G12D)-HiBit-KI cell, compound treatment for 24 hours, absolute DC50
T1 construct: AsPc-1-KRAS (G12D)-HiBit-KI cell (Pharmaron); host or cells: AsPc-1-KRAS (G12D)-HiBit-KI cells (HiBiT knock-in at the endogenous KRAS locus)
T1 sequence (P01116 1-188 isoform P01116-2 G12D): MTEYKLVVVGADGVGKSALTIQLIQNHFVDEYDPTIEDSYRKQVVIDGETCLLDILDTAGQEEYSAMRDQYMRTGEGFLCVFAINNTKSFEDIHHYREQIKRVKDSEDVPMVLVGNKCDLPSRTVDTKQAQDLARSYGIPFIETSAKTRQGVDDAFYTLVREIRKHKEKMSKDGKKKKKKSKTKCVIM
How it was run: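 HiBiT luminescence, detected by adding lytic buffer, substrate and LgBiT protein, served as the KRAS G12D read-out. Compounds, serially diluted 3-fold over 10 points from 0.3 mM DMSO stock, were on cells for 24 h; percent inhibition normalized to cells given 0.1% DMSO only.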

KRAS G12V = target: T2, KRAS G12V (Homo sapiens, UniProt P01116, G12V); test: KRAS G12V HiBit assay; settings: SW620-KRAS (G12V)-HiBit-KI cells, compound treatment for 24 hours
T2 construct: SW620-KRAS (G12V)-HiBit-KI cell (Pharmaron); host or cells: SW620-KRAS (G12V)-HiBit-KI cells (HiBiT knock-in at the endogenous KRAS locus)
T2 sequence (P01116 1-188 isoform P01116-2 G12V): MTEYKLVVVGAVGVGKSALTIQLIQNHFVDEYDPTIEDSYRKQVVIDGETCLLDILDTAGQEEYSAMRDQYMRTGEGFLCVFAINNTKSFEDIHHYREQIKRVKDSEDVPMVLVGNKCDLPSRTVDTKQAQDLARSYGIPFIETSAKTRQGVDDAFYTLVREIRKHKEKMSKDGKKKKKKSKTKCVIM
How it was run: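 Luminescence from lytic Nano-Glo HiBiT detection with LgBiT read KRAS G12V levels after 24 h compound exposure. Dilutions were 10-point, 3-fold, from a 0.3 mM DMSO stock. Degradation activity was normalised to cells given 0.1% DMSO alone.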

KRAS = target: T3, KRAS (Homo sapiens, UniProt P01116); test: KRASamp MSD assay; settings: KE39 (KRAS amplified) cells, treated with test compounds for 24 hr, MSD readout of KRAS degradation
T3 construct: endogenous in cells; host or cells: KE39 (KRAS amplified) cells
T3 sequence (P01116 1-188 isoform P01116-2): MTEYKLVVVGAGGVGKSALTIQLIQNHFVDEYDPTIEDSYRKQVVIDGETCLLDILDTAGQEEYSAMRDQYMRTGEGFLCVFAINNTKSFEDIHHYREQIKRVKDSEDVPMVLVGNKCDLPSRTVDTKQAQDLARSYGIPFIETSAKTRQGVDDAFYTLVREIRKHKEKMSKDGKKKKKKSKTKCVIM
How it was run: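 Degradation DC50 derived by curve fitting, with KRAS levels quantified by MSD electrochemiluminescence (capture/detection antibodies, recombinant WT KRAS standard). Lysates prepared from KE39 cells (KRAS amplified) exposed to test compounds for 24 hr.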

Compound | DC50 (KRAS G12D; numeric bounds given in place of class symbols) [nM] | DC50 (KRAS G12V; class symbols) [nM] | DC50 (KRAS) [nM] | DC50 (KRAS G12D; class symbols) [nM] | DC50 (KRAS G12V; numeric bounds) [nM]
C#Cc1c(F)ccc2cc(O)cc(-c3ncc4c(N5CCCC(F)(F)C5)nc(OC[C@]56CCCN5[C@H](COC(=O)N5CCC(CN7CCC(c8ccc9c(c8)n(C)c(=O)n9C8CCC(=O)NC8=O)CC7)CC5)CC6)nc4c3F)c12 (stereo partly drawn) [Compound 431, ((3S,7aR)-7a-(((4-(3,3-difluoropiperidin-1-yl)-7-(8-ethynyl-7-fluoro-3-hydroxynaphthalen-1-yl)-8-fluoropyrido[4,3-d]pyrimidin-2-yl)oxy)methyl)hexahydro-1H-pyrrolizin-3-yl)methyl 4-((4-(1-(2,6-dioxopiperidin-3-yl)-3-methyl-2-oxo-2,3-dihydro-1H-benzo[d]imidazol-5-yl)piperidin-1-yl)methyl)piperidine-1-carboxylate] | > 100 | < 10 | 1 to 10 | – | –
CCc1c(F)ccc2cc(O)cc(-c3ncc4c(N5CCC[C@@](C)(O)C5)nc(OC[C@@]56CCCN5[C@H](COC(=O)N5CCC(CN7CCC(c8ccc9c(c8)n(C)c(=O)n9C8CCC(=O)NC8=O)CC7)C5)CC6)nc4c3F)c12 (stereo partly drawn) [Compound 433, ((3S,7aS)-7a-(((7-(8-ethyl-7-fluoro-3-hydroxynaphthalen-1-yl)-8-fluoro-4-((R)-3-hydroxy-3-methylpiperidin-1-yl)pyrido[4,3-d]pyrimidin-2-yl)oxy)methyl)hexahydro-1H-pyrrolizin-3-yl)methyl 3-((4-(1-(2,6-dioxopiperidin-3-yl)-3-methyl-2-oxo-2,3-dihydro-1H-benzo[d]imidazol-5-yl)piperidin-1-yl)methyl)pyrrolidine-1-carboxylate] | – | < 10 | 1 to 10 | < 100 | –
CCc1c(F)ccc2cc(O)cc(-c3ncc4c(N5CCC[C@@](C)(O)C5)nc(OC[C@@]56CCCN5[C@H](COC(=O)N5CCCC5CN5CCC(c7ccc8c(c7)n(C)c(=O)n8C7CCC(=O)NC7=O)CC5)CC6)nc4c3F)c12 (stereo partly drawn) [Compound 434, ((3S,7aS)-7a-(((7-(8-ethyl-7-fluoro-3-hydroxynaphthalen-1-yl)-8-fluoro-4-((R)-3-hydroxy-3-methylpiperidin-1-yl)pyrido[4,3-d]pyrimidin-2-yl)oxy)methyl)hexahydro-1H-pyrrolizin-3-yl)methyl 2-((4-(1-(2,6-dioxopiperidin-3-yl)-3-methyl-2-oxo-2,3-dihydro-1H-benzo[d]imidazol-5-yl)piperidin-1-yl)methyl)pyrrolidine-1-carboxylate] | – | 10 to 100 | 1 to 10 | < 100 | –
CCc1c(F)ccc2cc(O)cc(-c3ncc4c(N5CCC[C@@](C)(O)C5)nc(OC[C@@]56CCCN5[C@H](COC(=O)N5CCC(CN7CCC(c8ccc9c(c8)n(C)c(=O)n9C8CCC(=O)NC8=O)C7)CC5)CC6)nc4c3F)c12 (stereo partly drawn) [Compound 435, ((3S,7aS)-7a-(((7-(8-ethyl-7-fluoro-3-hydroxynaphthalen-1-yl)-8-fluoro-4-((R)-3-hydroxy-3-methylpiperidin-1-yl)pyrido[4,3-d]pyrimidin-2-yl)oxy)methyl)hexahydro-1H-pyrrolizin-3-yl)methyl 4-((3-(1-(2,6-dioxopiperidin-3-yl)-3-methyl-2-oxo-2,3-dihydro-1H-benzo[d]imidazol-5-yl)pyrrolidin-1-yl)methyl)piperidine-1-carboxylate] | – | 10 to 100 | 1 to 10 | < 100 | –
CCc1c(F)ccc2cc(O)cc(-c3ncc4c(N5CCC[C@@](C)(O)C5)nc(OC[C@@]56CCCN5[C@H](CN5CCC(CN7CCC(Cc8ccc9c(c8)n(C)c(=O)n9C8CCC(=O)NC8=O)CC7)CC5)CC6)nc4c3F)c12 (stereo partly drawn) [Compound 436, 3-(5-((1-((1-(((3S,7aS)-7a-(((7-(8-ethyl-7-fluoro-3-hydroxynaphthalen-1-yl)-8-fluoro-4-((R)-3-hydroxy-3-methylpiperidin-1-yl)pyrido[4,3-d]pyrimidin-2-yl)oxy)methyl)hexahydro-1H-pyrrolizin-3-yl)methyl)piperidin-4-yl)methyl)piperidin-4-yl)methyl)-3-methyl-2-oxo-2,3-dihydro-1H-benzo[d]imidazol-1-yl)piperidine-2,6-dione] | – | 10 to 100 | 1 to 10 | < 100 | –

Now from value to compound:

DC50 (KRAS G12D; numeric bounds given in place of class symbols) [nM] | DC50 (KRAS G12V; class symbols) [nM] | DC50 (KRAS) [nM] | DC50 (KRAS G12D; class symbols) [nM] | DC50 (KRAS G12V; numeric bounds) [nM] | Compound
– | < 10 | < 1 | < 100 | – | CCc1c(F)ccc2cc(O)cc(-c3ncc4c(N5CCCC(F)(F)C5)nc(OC[C@@]56CCCN5[C@H](COC(=O)N5CCC(CN7CCC(c8ccc9c(c8)n(C)c(=O)n9C8CCC(=O)NC8=O)CC7)CC5)CC6)nc4c3F)c12 (stereo partly drawn) [Compound 437, ((3S,7aS)-7a-(((4-(3,3-difluoropiperidin-1-yl)-7-(8-ethyl-7-fluoro-3-hydroxynaphthalen-1-yl)-8-fluoropyrido[4,3-d]pyrimidin-2-yl)oxy)methyl)hexahydro-1H-pyrrolizin-3-yl)methyl 4-((4-(1-(2,6-dioxopiperidin-3-yl)-3-methyl-2-oxo-2,3-dihydro-1H-benzo[d]imidazol-5-yl)piperidin-1-yl)methyl)piperidine-1-carboxylate]
– | < 10 | < 1 | < 100 | – | Cn1c(=O)n(C2CCC(=O)NC2=O)c2ccc(C3CCN(C4CC5(CCN(C(=O)OC[C@@H]6CC[C@]7(COc8nc(N9CCC[C@@](C)(O)C9)c9cnc(-c%10cc(O)cc%11ccc(F)cc%10%11)c(F)c9n8)CCCN67)CC5)C4)CC3)cc21 (stereo partly drawn) [Compound 438, ((3S,7aS)-7a-(((8-fluoro-7-(7-fluoro-3-hydroxynaphthalen-1-yl)-4-((R)-3-hydroxy-3-methylpiperidin-1-yl)pyrido[4,3-d]pyrimidin-2-yl)oxy)methyl)hexahydro-1H-pyrrolizin-3-yl)methyl 2-(4-(1-(2,6-dioxopiperidin-3-yl)-3-methyl-2-oxo-2,3-dihydro-1H-benzo[d]imidazol-5-yl)piperidin-1-yl)-7-azaspiro[3.5]nonane-7-carboxylate]
– | < 10 | 1 to 10 | < 100 | – | CCc1c(F)ccc2cc(O)cc(-c3ncc4c(N5CCC[C@@](C)(O)C5)nc(OC[C@@]56CCCN5[C@H](COC(=O)N5CCC(CN7CCC(c8cccc9c8n(C)c(=O)n9C8CCC(=O)NC8=O)CC7)CC5)CC6)nc4c3F)c12 (stereo partly drawn) [Compound 440, ((3S,7aS)-7a-(((7-(8-ethyl-7-fluoro-3-hydroxynaphthalen-1-yl)-8-fluoro-4-((R)-3-hydroxy-3-methylpiperidin-1-yl)pyrido[4,3-d]pyrimidin-2-yl)oxy)methyl)hexahydro-1H-pyrrolizin-3-yl)methyl 4-((4-(1-(2,6-dioxopiperidin-3-yl)-3-methyl-2-oxo-2,3-dihydro-1H-benzo[d]imidazol-4-yl)piperidin-1-yl)methyl)piperidine-1-carboxylate]
– | – | 1 to 10 | < 100 | > 78.5 | CCc1c(F)ccc2cc(O)cc(-c3ncc4c(N5CCC[C@@](C)(O)C5)nc(OC[C@]56CCCN5[C@H](CN5CCC(OCCCc7ccc8c(c7)n(C)c(=O)n8C7CCC(=O)NC7=O)CC5)CC6)nc4c3F)c12 (stereo partly drawn) [Compound 444, 3-(5-(3-((1-(((3S,7aR)-7a-(((7-(8-Ethyl-7-fluoro-3-hydroxynaphthalen-1-yl)-8-fluoro-4-((R)-3-hydroxy-3-methylpiperidin-1-yl)pyrido[4,3-d]pyrimidin-2-yl)oxy)methyl)hexahydro-1H-pyrrolizin-3-yl)methyl)piperidin-4-yl)oxy)propyl)-3-methyl-2-oxo-2,3-dihydro-1H-benzo[d]imidazol-1-yl) piperidine-2,6-dione]
